Each block holds one compound with its values, some of them ahead of it. The source made the active and inactive calls.
Tests used:
[1] = molecular target: Lysosomal acid glucosylceramidase (Homo sapiens, UniProt P04062); experiment: Dose response cell-based high throughput screening assay to identify enhancers of beta-glucosidase activity. [Related pubchem assays: 784 ]; assay type: functional
[2] = molecular target: T1, Intestinal-type alkaline phosphatase (Mus musculus, UniProt P24822); experiment: PubChem AID 488875; assay type: functional
[3] = molecular target: T2, Intestinal-type alkaline phosphatase (Homo sapiens, UniProt P09923); experiment: human intestinal alkaline phosphatase activators, dose response, biochemical, luminescence, uHTS hits (AID 463120); assay type: functional
[4] = molecular target: T2, Intestinal-type alkaline phosphatase; experiment: human IAP activators, dose response, biochemical, luminescent, uHTS hits, set 2 (AID 488817); assay type: functional;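 note: potency of activators that raise enzyme activity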
[5] = molecular target: T3, Alkaline phosphatase, tissue-nonspecific isozyme (Homo sapiens, UniProt P05186); experiment: TNAP enzyme activators, dose response, selectivity assay for human IAP activator project, biochemical, TNAP isozyme, human IAP uHTS hits (AID 488886); assay type: functional;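 note: potency of compounds raising TNAP activity as a selectivity check on IAP activators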
T3 sequence (P05186 whole entry): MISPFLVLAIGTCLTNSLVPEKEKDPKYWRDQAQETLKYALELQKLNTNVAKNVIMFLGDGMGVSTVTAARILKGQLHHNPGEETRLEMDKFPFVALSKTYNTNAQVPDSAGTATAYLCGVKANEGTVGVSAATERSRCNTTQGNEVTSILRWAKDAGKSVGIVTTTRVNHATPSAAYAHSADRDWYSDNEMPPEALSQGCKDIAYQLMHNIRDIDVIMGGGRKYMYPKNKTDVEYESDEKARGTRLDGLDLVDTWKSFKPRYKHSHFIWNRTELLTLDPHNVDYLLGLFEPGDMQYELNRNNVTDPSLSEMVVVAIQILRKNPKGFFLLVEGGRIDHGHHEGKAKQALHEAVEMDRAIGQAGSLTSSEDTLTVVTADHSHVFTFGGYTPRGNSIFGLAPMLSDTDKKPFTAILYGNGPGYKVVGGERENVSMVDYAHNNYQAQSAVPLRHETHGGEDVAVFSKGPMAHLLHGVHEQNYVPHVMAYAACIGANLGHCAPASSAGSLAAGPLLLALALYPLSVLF

Chaperone protein dnaK = Chaperone protein dnaK (Escherichia coli, UniProt C3TRK2); experiment: DnaK beta-domain binding affinity, SAR follow-up, orthogonal assay for DnaK modulator project, biophysical, isothermal titration calorimetry, full-length DnaK (AID 1495)
[6] = molecular target: T4, Melanin-concentrating hormone receptor 1 (Homo sapiens, UniProt Q99705); experiment: Fluorescence-based counterscreen for antagonists of the G-protein coupled receptor 7 (GPR7): cell-based high throughput dose response assay to identify antagonists of the melanin-concentrating hormone receptor 1 (MCHR1).; assay type: functional
[7] = molecular target: T5, Scavenger receptor class B member 1 (Mus musculus, UniProt Q61009); experiment: inhibitors of SR-BI mediated HDL lipid uptake, dose response, ldlA[mSR-BI] cells, fluorescence, cherry pick (AID 493194); assay type: functional, cell-based;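 note: cellular uptake of fluorescent DiI-labeled HDL measured as cell fluorescence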
T5 sequence (Q61009 whole entry): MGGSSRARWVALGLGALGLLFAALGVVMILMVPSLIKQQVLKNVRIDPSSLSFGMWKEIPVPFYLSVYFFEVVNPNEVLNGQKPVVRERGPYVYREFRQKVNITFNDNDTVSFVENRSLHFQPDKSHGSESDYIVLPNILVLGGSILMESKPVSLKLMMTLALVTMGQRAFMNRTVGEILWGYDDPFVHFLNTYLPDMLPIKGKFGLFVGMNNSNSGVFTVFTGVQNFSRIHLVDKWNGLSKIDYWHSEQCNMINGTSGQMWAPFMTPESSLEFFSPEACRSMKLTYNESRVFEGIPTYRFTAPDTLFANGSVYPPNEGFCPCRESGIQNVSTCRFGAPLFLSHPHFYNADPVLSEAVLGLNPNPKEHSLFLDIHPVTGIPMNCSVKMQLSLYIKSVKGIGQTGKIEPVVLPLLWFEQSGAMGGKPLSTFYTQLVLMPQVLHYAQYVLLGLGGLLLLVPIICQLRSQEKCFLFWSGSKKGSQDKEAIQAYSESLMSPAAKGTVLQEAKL

[8] = molecular target: Induced myeloid leukemia cell differentiation protein Mcl-1 (Homo sapiens, UniProt Q07820); assay type: functional
Leucine aminopeptidase = molecular target: T6, Leucine aminopeptidase (Plasmodium falciparum 3D7, UniProt Q8IL11); experiment: P. falciparum M17LAP inhibitors, primary screen, biochemical, fluorogenic H-Leu-NHMec substrate, 1536-well (AID 1619); assay type: functional
T6 sequence (Q8IL11 whole entry): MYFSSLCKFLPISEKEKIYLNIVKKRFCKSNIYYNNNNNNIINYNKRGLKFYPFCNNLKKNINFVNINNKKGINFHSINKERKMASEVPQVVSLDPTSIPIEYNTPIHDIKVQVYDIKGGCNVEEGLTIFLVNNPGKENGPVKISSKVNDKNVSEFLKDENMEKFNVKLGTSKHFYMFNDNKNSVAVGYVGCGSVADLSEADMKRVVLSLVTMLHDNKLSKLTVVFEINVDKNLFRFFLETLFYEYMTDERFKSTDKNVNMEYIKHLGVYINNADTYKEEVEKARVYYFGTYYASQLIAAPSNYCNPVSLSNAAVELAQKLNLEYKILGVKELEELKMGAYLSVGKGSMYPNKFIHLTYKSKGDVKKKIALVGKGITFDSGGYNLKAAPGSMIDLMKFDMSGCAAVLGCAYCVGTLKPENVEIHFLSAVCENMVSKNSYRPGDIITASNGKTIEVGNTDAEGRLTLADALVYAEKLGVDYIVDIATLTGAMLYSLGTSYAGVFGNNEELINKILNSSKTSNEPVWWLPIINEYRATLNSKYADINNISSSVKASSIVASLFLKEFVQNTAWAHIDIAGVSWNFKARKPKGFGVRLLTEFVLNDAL

[9] = Shn3 3'UTR reporter inhibitors, dose response, cell-based, Clone20 osteoblasts, firefly luciferase, cherry-picked (AID 624132); assay type: functional;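 note: firefly luciferase luminescence from reporter carrying the Shn3 3'UTR in osteoblasts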
Beta-galactosidase = Beta-galactosidase (Escherichia coli, UniProt Q8VNN2); experiment: beta-galactosidase enzyme inhibitors and activators, dose response, artefact control for CCR6 antagonist project, biochemical, E. coli enzyme, set 3 (AID 504712); assay type: functional
[10] = molecular target: C-C chemokine receptor type 6 (Homo sapiens, UniProt P51684); experiment: CCR6 receptor antagonists, dose response, cell-based, luminescent beta-arrestin readout (AID 504728); assay type: functional
[11] = control 3'UTR Renilla luciferase suppression, dose response, counter-screen for Shn3 inhibitor project, cell-based, Clone20-Shn3RL, cherry-picked (AID 624133); assay type: functional
[12] = HepG2 cell cytotoxicity, dose response, cytotoxicity control for Shn3 inhibitor project, CellTiter-Glo, cherry-picked (AID 624134); assay type: functional, cell-based
[13] = molecular target: Voltage-gated N-type calcium channel alpha-1B subunit/Amyloid beta A4 precursor protein-binding family A member 1 (Homo sapiens, UniProt Q00975+Q02410); experiment: disruptors of Mint-PDZ/N-type channel peptide interaction – biochemical, HTRF, set 2, SAR follow-up (AID 434980); assay type: functional
[14] = molecular target: Dual specificity protein phosphatase 3 (Homo sapiens, UniProt P51452); experiment: VHR1 inhibitor Ki determination, SAR follow-up, biochemical, colorimetric (AID 2004)
Cytochrome P450 2D6 = Cytochrome P450 2D6 (Homo sapiens, UniProt P10635); experiment: qHTS Assay for Inhibitors and Substrates of Cytochrome P450 2D6. [Related pubchem assays: 410 ]; assay type: ADME; conditions: read-out: Potency
Cytochrome P450 2C9 = Cytochrome P450 2C9 (Homo sapiens, UniProt P11712); conditions: Potency
Cytochrome P450 2C19 = Cytochrome P450 2C19 (Homo sapiens, UniProt P33261); experiment: qHTS Assay for Inhibitors and Substrates of Cytochrome P450 2C19. [Related pubchem assays: 410 ]; assay type: ADME; conditions: read-out: Potency
[15] = molecular target: Neuropeptides B/W receptor type 1 (Homo sapiens, UniProt P48145); experiment: GPR7 antagonist potency, late-stage follow-up, cell-based, fluorescence, dose response (AID 463251); assay type: functional
[16] = molecular target: T4, Melanin-concentrating hormone receptor 1; experiment: Late-stage fluorescence-based counterscreen for antagonists of the G-protein coupled receptor 7 (GPR7): cell-based dose response assay to identify antagonists of the melanin-concentrating hormone receptor 1 (MCHR1). [Related pubchem assays (depositor defined):AID1861, AID1880, AID1952, AID2148, AID2251, AID2257, AID485339]; assay type: functional
[17] = molecular target: T1, Intestinal-type alkaline phosphatase; experiment: PubChem AID 488874; assay type: functional

T2 sequence (P09923 whole entry): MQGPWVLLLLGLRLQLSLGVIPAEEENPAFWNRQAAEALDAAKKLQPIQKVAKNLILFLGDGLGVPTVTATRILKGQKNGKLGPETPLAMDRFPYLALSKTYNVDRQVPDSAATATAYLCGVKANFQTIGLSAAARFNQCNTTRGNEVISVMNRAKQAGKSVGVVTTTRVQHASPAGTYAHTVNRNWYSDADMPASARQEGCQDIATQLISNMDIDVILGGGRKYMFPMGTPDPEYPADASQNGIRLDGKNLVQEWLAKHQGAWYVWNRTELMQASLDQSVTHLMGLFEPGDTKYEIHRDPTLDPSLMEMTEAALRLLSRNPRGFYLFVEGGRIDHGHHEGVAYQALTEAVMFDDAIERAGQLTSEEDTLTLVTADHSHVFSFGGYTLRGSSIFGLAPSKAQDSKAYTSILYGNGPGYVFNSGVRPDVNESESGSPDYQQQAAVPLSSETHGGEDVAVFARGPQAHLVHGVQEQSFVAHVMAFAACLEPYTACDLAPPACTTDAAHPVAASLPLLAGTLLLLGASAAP
T1 sequence (P24822 whole entry): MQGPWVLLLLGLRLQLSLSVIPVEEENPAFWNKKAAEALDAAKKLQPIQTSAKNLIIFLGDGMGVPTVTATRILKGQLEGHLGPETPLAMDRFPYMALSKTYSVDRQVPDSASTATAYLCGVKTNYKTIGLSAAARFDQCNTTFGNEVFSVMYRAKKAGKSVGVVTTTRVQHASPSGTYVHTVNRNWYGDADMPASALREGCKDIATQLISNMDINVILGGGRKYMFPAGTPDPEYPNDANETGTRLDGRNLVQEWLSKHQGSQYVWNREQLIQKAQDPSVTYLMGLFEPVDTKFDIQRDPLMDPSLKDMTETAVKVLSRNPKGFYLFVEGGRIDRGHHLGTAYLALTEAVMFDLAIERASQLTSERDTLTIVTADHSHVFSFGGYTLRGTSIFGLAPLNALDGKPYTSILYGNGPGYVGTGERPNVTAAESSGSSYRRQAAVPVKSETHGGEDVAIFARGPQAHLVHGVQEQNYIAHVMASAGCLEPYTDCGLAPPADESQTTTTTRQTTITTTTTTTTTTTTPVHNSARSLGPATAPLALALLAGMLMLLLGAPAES
T4 sequence (Q99705 whole entry): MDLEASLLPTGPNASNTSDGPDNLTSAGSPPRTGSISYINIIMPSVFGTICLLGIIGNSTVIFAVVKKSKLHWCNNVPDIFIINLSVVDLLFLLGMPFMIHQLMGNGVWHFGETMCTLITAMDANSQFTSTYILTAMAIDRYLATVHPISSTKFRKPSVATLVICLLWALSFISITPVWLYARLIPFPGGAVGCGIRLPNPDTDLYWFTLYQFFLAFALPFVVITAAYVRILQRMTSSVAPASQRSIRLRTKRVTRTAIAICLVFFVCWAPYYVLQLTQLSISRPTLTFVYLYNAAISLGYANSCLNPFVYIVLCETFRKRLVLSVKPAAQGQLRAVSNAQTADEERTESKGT
Chain of Beta-galactosidase (Q8VNN2 whole entry): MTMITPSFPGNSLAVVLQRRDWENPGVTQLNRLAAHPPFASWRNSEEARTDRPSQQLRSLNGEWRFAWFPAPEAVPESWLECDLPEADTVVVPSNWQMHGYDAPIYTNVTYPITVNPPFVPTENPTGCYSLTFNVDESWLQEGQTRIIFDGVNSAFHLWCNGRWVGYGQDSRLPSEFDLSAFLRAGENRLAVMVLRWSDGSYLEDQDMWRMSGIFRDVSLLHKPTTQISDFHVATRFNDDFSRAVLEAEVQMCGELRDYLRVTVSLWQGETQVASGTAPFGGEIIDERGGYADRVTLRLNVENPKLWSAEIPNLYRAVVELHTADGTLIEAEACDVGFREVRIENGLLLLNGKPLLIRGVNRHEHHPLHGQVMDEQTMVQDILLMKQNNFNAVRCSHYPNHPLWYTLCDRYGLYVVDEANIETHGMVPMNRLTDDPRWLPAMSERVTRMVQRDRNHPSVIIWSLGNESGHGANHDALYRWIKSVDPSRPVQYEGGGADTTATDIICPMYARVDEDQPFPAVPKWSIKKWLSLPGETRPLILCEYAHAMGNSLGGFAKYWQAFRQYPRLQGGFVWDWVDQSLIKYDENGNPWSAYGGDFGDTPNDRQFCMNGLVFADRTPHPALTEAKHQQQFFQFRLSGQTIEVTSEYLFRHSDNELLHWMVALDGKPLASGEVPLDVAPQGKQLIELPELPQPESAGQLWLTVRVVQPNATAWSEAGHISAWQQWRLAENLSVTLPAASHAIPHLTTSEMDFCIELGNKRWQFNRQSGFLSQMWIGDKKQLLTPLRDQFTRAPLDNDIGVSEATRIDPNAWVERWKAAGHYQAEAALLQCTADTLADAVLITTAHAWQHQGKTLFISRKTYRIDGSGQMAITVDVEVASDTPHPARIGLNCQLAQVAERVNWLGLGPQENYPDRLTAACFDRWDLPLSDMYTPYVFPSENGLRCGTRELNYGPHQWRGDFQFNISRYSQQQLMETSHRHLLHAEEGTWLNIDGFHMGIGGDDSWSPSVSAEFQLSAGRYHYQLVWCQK
Chain of Cytochrome P450 2D6 (P10635 whole entry): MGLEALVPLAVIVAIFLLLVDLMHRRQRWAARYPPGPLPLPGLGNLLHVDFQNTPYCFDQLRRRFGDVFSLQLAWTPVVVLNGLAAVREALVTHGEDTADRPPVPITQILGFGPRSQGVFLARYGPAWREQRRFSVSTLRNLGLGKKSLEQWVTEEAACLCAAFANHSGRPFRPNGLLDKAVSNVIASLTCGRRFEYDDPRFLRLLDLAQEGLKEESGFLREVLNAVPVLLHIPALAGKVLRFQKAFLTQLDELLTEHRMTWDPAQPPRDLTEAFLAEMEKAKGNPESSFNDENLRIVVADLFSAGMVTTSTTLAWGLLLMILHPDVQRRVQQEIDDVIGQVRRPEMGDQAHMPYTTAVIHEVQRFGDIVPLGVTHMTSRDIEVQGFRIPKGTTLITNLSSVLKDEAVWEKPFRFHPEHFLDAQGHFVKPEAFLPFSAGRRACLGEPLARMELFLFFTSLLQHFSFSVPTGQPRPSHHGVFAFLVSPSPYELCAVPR
Chain of Induced myeloid leukemia cell differentiation protein Mcl-1 (Q07820 whole entry): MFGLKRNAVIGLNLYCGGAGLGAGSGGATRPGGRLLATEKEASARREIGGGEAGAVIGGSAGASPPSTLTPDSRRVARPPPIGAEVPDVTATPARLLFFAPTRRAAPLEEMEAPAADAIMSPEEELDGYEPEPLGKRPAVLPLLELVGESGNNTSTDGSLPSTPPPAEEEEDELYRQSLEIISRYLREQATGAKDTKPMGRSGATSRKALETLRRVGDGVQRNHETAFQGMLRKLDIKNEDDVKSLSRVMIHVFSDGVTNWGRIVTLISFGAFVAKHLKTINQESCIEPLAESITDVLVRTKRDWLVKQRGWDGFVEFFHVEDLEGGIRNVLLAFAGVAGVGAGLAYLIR
Chain of Chaperone protein dnaK (C3TRK2 whole entry): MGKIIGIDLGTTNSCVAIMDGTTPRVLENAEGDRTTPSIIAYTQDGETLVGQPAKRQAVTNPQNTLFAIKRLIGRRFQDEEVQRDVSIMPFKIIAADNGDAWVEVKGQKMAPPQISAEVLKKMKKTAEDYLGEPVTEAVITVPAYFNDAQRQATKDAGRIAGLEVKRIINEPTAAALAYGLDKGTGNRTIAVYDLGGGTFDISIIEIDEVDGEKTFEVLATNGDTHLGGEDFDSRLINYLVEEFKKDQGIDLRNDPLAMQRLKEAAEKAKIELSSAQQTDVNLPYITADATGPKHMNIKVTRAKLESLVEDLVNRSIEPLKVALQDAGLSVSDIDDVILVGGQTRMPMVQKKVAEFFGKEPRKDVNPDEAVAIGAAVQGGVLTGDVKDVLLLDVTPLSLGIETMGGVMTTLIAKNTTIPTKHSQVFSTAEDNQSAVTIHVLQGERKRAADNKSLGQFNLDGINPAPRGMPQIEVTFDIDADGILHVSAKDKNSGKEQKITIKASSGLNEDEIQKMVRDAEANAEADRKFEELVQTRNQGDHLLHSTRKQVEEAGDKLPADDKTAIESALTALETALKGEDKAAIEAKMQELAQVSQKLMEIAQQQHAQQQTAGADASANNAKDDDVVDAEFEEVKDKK
Chain of Dual specificity protein phosphatase 3 (P51452 whole entry): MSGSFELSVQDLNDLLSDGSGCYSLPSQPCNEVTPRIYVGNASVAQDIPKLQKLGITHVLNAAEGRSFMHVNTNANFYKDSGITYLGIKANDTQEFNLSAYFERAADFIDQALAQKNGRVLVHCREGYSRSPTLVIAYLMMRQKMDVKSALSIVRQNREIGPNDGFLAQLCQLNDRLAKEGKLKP
Chain of Neuropeptides B/W receptor type 1 (P48145 whole entry): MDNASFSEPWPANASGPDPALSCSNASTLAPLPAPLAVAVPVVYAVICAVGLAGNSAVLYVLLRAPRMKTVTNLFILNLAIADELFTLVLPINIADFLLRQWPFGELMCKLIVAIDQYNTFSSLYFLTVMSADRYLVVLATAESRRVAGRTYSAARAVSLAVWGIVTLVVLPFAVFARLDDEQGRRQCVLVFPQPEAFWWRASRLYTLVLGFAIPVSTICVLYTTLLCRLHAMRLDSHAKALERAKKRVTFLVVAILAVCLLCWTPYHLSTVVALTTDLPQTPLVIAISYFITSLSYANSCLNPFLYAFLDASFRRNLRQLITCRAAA
Chain of Cytochrome P450 2C19 (P33261 whole entry): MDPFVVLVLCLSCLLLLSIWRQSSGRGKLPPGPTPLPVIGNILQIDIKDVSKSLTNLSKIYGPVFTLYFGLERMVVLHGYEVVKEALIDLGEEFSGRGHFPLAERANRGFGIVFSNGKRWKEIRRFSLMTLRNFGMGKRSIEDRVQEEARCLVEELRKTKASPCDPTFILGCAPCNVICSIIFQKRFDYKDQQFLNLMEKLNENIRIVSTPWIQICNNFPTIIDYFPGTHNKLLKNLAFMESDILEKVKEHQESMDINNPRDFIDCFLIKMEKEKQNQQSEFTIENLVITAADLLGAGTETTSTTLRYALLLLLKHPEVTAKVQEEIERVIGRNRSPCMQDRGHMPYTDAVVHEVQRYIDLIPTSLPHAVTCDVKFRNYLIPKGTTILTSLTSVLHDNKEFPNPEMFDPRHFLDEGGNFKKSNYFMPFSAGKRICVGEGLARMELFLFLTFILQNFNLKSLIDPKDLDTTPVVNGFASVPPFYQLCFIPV

Compound: O=C(NCc1cccc2ccccc12)c1cccs1
Kd (Chaperone protein dnaK): 1.7 µM (active)

Compound: CC1CCc2c(sc(Nc3nc4c(F)cccc4s3)c2C(N)=O)C1 (stereo unspecified)
AC50 [7]: 10.9 µM (active)
IC50 [8]: 3.83 µM (active)
IC50 (Leucine aminopeptidase): 18 µM (active)

Compound: O=C1C(Br)=C(c2ccccc2)C(c2ccccc2)=C1c1ccccc1
AC50 [9]: 0.46 µM (active)
IC50 (Beta-galactosidase): > 66.6 µM (inactive)
IC50 [10]: > 66.6 µM (inactive)
AC50 [11]: 4.75 µM (active)
AC50 [12]: 38.8 µM (active)

Compound: NC(=O)c1c(N)sc2c1CCCCCCCCCC2
Ki [14]: 39.8 µM (inactive)

Compound: O=C(NNC(=S)NC(=O)c1ccccc1)c1cccnc1
EC50 [3]: 12.1 µM (active)
EC50 [4]: 16.4 µM (active)
EC50 [5]: 16.4 µM (active)
IC50 [17]: 74.2 µM (active)

Further lines, results first:

EC50 [1]: > 10 µM (not active)
Compound: O=C(O)c1ccc2c(c1)C(c1ccccc1)OC2=O (stereo unspecified)

EC50 [2]: > 100 µM (inactive)
EC50 [3]: 11.4 µM (active)
EC50 [4]: 33 µM (active)
EC50 [5]: 22.9 µM (active)
Compound: CC(C)Oc1ccc(C(=O)Nc2nnc[nH]2)cc1

IC50 [6]: > 14.6 µM (not active)
Compound: CCN1CCN(C(=O)c2ccc3c(c2)N(Cc2ccc(C)cc2)CCS3)CC1

IC50 [13]: > 56.8 µM (inactive)
Compound: O=C(c1cc(-c2ccco2)nc2ccccc12)N1CCC(c2ccccc2)CC1

AC50 (Cytochrome P450 2D6): 7.94 µM (inconclusive)
AC50 (Cytochrome P450 2C9): 3.16 µM (inconclusive)
AC50 (Cytochrome P450 2C19): 3.98 µM (inconclusive)
Compound: CCCCCCC#Cc1cc(OC)c(OC)cc1C(N1CC(C)c2ccccc21)N1CC(C)c2ccccc21 (stereo unspecified)

IC50 [15]: 7 µM (active)
IC50 [16]: 12.6 µM (inactive)
Compound: COc1ccc(Oc2cnn(-c3ccc(C)cc3)c(=O)c2Cl)cc1
